Test results reported in publication PMC9318694 (Molecules, 2022).
Like-named read-outs stand apart in the source and are kept apart here.

How the values were obtained:
[1] = target: T1, D2R (Homo sapiens, UniProt P14416); assay: HTRF competitive binding screening of virtual hits at 10 µM (normalized decrease in fluorescence); conditions: for Normalized Decrease in Fluorescence ± SD: Table 3, 10 µM, n = 4, normalized to the control; for NDF (normalized decreased fluorescence) ± SD: Table S9, all selected virtual hits, n = 4, 10 µM
T1 sequence (P14416 whole entry): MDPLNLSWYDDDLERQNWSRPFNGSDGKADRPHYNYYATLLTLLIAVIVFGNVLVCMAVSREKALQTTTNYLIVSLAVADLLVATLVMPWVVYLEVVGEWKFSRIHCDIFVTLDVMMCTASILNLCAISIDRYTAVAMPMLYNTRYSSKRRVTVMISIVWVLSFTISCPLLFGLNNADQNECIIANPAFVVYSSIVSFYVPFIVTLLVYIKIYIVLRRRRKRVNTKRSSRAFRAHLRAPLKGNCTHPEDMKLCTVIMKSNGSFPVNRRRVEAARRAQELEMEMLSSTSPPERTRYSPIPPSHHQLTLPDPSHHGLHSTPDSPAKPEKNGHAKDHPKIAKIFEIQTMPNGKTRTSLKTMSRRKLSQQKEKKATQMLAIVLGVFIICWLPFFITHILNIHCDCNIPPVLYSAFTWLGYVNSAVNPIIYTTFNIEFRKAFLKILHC

[2] = target: T1, D2R; conditions: cited from earlier work
[3] = target: T1, D2R; assay: HTRF KI determination of the selected ligands; format: binding; conditions: for Fold Difference in comparison to the determined KI of dopamine / Ki: Table 4; for Ki: n = 6
Method: The selected compounds were investigated in vitro to determine their binding affinities (KI values) at D2R.
All the HTRF assays were performed using a Tecan Spark plate reader. The respective settings were specifically modified and optimized for the determination of D2R ligand-binding affinities. […] Fluorophores were excited at 320 nm. A Dichroic 510 mirror was used, while lag and integration times of 100 and 400 µs were applied, respectively. Flashes were set to 75. Electronic gain was automatically optimized, while the z-position was optimized based on the well with the highest expected signal. […] The first plate was used to determine the gain and the z-position. Subsequently, the determined values were set manually for the second plate to enable direct comparison between the different plates.
The cells were stored in liquid nitrogen until further use. […] Bromocriptine mesylate (50 mg; CAYM14598-50) was acquired from VWR. The assay was conducted according to the standard operation protocol (SOP) available from PerkinElmer/cisbio. The 96-well plates were incubated at room temperature for 2 h. The 96-well plates were read on a Tecan Spark plate reader (the settings are shown in Section 4.5). The respective concentrations of the dilution series were performed in triplicates. In total, KD determination was performed three times.
The materials described in 4.6 were also used during KI determination of the ligands selected after screening. […] KI was determined following the SOP available at PerkinElmer/cisbio. The 96-well plates were incubated at room temperature in the dark for 2 h. The 96-well plates were read on a Tecan Spark plate reader (the settings are shown in Section 4.5). In total, KI determination was performed twice.

[4] = Table S2, data set of inactives, radio-ligand binding (RLB) assays, ref ChEMBL, [71]-[92], read-out: KI

Row | Compound | Normalized Decrease in Fluorescence ± SD [1] | NDF (normalized decreased fluorescence) ± SD [1] | Ki [2, 4] [µM] | also measured
1 | CN1CCc2cccc3c2[C@H]1Cc1ccc(O)c(O)c1-3 [Compound 1, Apomorphine] | 9.44 ± 5.97 |  |  | 
2 | CC(C)C[C@H]1C(=O)N2CCC[C@H]2[C@]2(O)O[C@](NC(=O)[C@@H]3C=C4c5cccc6[nH]c(Br)c(c56)C[C@H]4N(C)C3)(C(C)C)C(=O)N12 [Compound 2, Bromocriptine] | 39.10 ± 1.31 |  |  | Ki [2]: 0.0009 µM
3 | C=CC1CN2CCC1CC2C(O)c1ccnc2ccc(O)cc12 (stereo not shown) [Compound 10] |  | 1.13 ± 0.37 |  | 
4 | CC/N=C1/SC(CC(=O)Nc2ccccc2C(F)(F)F)C(=O)N1CC (stereo not shown) [Compound 11] |  | 0.84 ± 0.23 |  | 
5 | CC1CC(C)CN(CCC(=O)Nc2ccc(F)c(F)c2)C1 (stereo not shown) [Compound 12] |  | 1.05 ± 0.50 |  | 
6 | CN1CCN(C2Cc3ccc(O)cc3Sc3ccc(Cl)cc32)CC1 (stereo not shown) [Compound 14] | 40.40 ± 1.39 |  |  | activity (KI range in words) [3]: nanomolar; Fold Difference in comparison to the determined KI of dopamine [3]: 2700; Ki [3]: 0.004 µM
7 | NS(=O)(=O)c1ccc(CCNCc2ccc(-c3cc(Cl)ccc3Cl)o2)cc1 [Compound 15] | 3.99 ± 2.58 | 3.99 ± 2.58 |  | activity (KI range in words) [3]: micromolar; Fold Difference in comparison to the determined KI of dopamine [3]: 2.6; Ki [3]: 4.31 µM
8 | CCN(CCC(=O)Nc1cccc(OC)c1)Cc1ccccc1 [Compound 16] | 15.74 ± 18.15 | 15.74 ± 18.15 |  | Fold Difference in comparison to the determined KI of dopamine [3]: 1.1; Ki [3]: 10 µM
9 | O=C(CCN1CCN(c2ccccc2F)CC1)Nc1cccc(F)c1 [Compound 17] | 8.18 ± 3.62 | 8.18 ± 3.62 |  | activity (KI range in words) [3]: micromolar; Fold Difference in comparison to the determined KI of dopamine [3]: 9.0; Ki [3]: 1.24 µM
10 | O[C@H](CNCCNc1ccc(C(F)(F)F)cn1)CSc1ccc(F)cc1 [Compound 18] | 10.85 ± 4.93 | 10.85 ± 4.93 |  | activity (KI range in words) [3]: micromolar; Fold Difference in comparison to the determined KI of dopamine [3]: 4.2; Ki [3]: 2.63 µM
11 | NC(=O)c1ccccc1OCCCN1CCN(c2ccccc2)CC1 [Compound 19] | 22.08 ± 6.62 | 22.08 ± 6.62 |  | activity (KI range in words) [3]: submicromolar; Fold Difference in comparison to the determined KI of dopamine [3]: 34.7; Ki [3]: 0.32 µM
12 | O=C(CCCN1CC=C(n2c(=O)[nH]c3ccccc32)CC1)c1ccc(F)cc1 [Droperidol, droperidol] | 38.69 ± 2.56 |  |  | 
13 | c1cnc(N2CCN(Cc3ccc4c(c3)OCO4)CC2)nc1 [Piribedil, piribedil] | 9.21 ± 3.80 |  |  | 
14 | COc1cccc(CCc2ccccc2OCCCCN2CCN(c3ncccn3)CC2)c1 [SC117, 2-[4-[4-[2-[2-(3-methoxyphenyl)ethyl]phenoxy]butyl]piperazin-1-yl]pyrimidine] |  |  | 854 | 
15 | COc1cccc(CCc2ccccc2OCCCCCN2CCN(c3ncccn3)CC2)c1 [SC118, 2-[4-[5-[2-[2-(3-methoxyphenyl)ethyl]phenoxy]pentyl]piperazin-1-yl]pyrimidine] |  |  | > 1000 | 
16 | COc1cccc(CCc2ccccc2OCCCCCN2CCN(c3ccc(F)cc3)CC2)c1 [SC119, 1-(4-fluorophenyl)-4-[5-[2-[2-(3-methoxyphenyl)ethyl]phenoxy]pentyl]piperazine] |  |  | 847 | 
17 | COc1cccc(CCc2ccccc2OCCN2CCN(c3ccccc3OC)CC2)c1 [SC120, 1-(2-methoxyphenyl)-4-[2-[2-[2-(3-methoxyphenyl)ethyl]phenoxy]ethyl]piperazine] |  |  | 427 | 
18 | COc1cccc(CCc2ccccc2OCCN2CCN(c3cccc(Cl)c3)CC2)c1 [SC121, 1-(3-chlorophenyl)-4-[2-[2-[2-(3-methoxyphenyl)ethyl]phenoxy]ethyl]piperazine] |  |  | > 1000 | 
19 | COc1cccc(CCc2ccccc2OCCCCN2CCN(c3ccccc3OC)CC2)c1 [SC122, 1-(2-methoxyphenyl)-4-[4-[2-[2-(3-methoxyphenyl)ethyl]phenoxy]butyl]piperazine] |  |  | 67 | 
20 | COc1cccc(CCc2ccccc2OCCCN2CCN(C)CC2)c1 [SC123, 1-[3-[2-[2-(3-methoxyphenyl)ethyl]phenoxy]propyl]-4-methylpiperazine] |  |  | 565 | 
21 | COc1cccc(CCc2ccccc2OCCCCCN2CCc3ccccc3C2)c1 [SC124, 2-[5-[2-[2-(3-methoxyphenyl)ethyl]phenoxy]pentyl]-3,4-dihydro-1H-isoquinoline] |  |  | > 1000 | 
22 | COc1cccc(CCc2ccccc2OCCCCCN2CCc3cc(OC)c(OC)cc3C2)c1 [SC125, 6,7-dimethoxy-2-[5-[2-[2-(3-methoxyphenyl)ethyl]phenoxy]pentyl]-3,4-dihydro-1H-isoquinoline] |  |  | > 1000 | 
23 | COc1cccc(CCc2ccccc2OCCN2CCc3ccccc3C2)c1 [SC126, 2-[2-[2-[2-(3-methoxyphenyl)ethyl]phenoxy]ethyl]-3,4-dihydro-1H-isoquinoline] |  |  |  | Ki ([2]; read-out: KI): > 1000 µM
24 | c1ccc(CCC2CN(Cc3nc4ccccc4[nH]3)CCO2)cc1 (stereo not shown) [SC127, 4-(1H-benzimidazol-2-ylmethyl)-2-(2-phenylethyl)morpholine] |  |  | > 100 | 
25 | CCN1CCC[C@H]1CNC(=O)c1cc(S(N)(=O)=O)ccc1OC [Sulpiride, (S)-(−)-sulpiride] | 30.65 ± 6.79 |  |  | 
26 | SC144 |  | 1.02 ± 0.36 |  | 
